Reference: patent publication US12070458B2, “Therapeutic agent composition and method of use, for treatment of mild congnitive impairment, depression, and psychological disorders” (priority 2018, dated 2024)
“Also recorded” adds a separate entry of the source.

Tested on: Alzheimer patients with mild cognitive impairment
Assay: Clinical trial on Alzheimer's patients with mild cognitive impairment
Format: in vivo, human
Conditions: 10 mg orally once a day
Procedure: A randomized clinical trial of NA-831 (also known as cyclic Prolyl Glycine) was performed on Alzheimer patients with mild cognitive impairment of vascular origin. The drug NA-831 was administered orally with a one capsule of 10 mg once a day over a period of 12 weeks. There were 32 Alzheimer patients participated in the study.
• Is male or female, at 55-85 years of age (inclusive) at screening. • Self-reported memory complaint, corroborated by spouse or companion as appropriate. • Wechsler Memory Scale III (WMS-III) age-adjusted Logical Memory II score ≤5. • Mini-Mental State Exam (MMSE)≥24. • Center for Epidemiologic Studies-Depression (CES-D) score <27. • Normal thyroid function, defined as TSH, T3 and T4 within normal limits. • Agree not to consume alcoholic beverages within 8 hours of each study visit. • Willing and able to sign informed consent and complete the CTB and all other tests and procedures as listed in the protocol. • Female subjects must be surgically sterile or post-menopausal for at least 2 years. If <2 years post-menopausal, then a follicle stimulating hormone (FSH) ≥40 mIU/mL must be obtained. […] Assessment • 1) A scale assessing the severity of symptoms based on the Unified Assessment of Clinical-Pharmacological Actions of Psychotropic Agents in Patients with Organic Disorders, which provides objective quantitative data on the therapeutic dynamics of psychopathological symptomatology and the characteristics of the psychotropic actions of agents. • 2) The Mini Mental State Examination (MMSE), which consists of a battery of neuropsychological tests evaluating cognitive functions in points: attention, memory, gnosis, speech, praxis, and counting. • 3) The Brief Cognitive Rating Scale (BCRS), which provides assessment of the severities of the individual components of cognitive impairments. • 4) The Cognitive Capacity Screening Examination (CCSE), which consists of a battery of tests assessing cognitive functions: orientation, memory, counting, and the abilities to infer and to group objects. • 5) The Clinical Global Impression scale, which provides quantitative assessments of the therapeutic efficacies of agents, along with tolerance and safety, using investigations of measures of disease severity, the level of “overall improvement,” the therapeutic effect, and the presence and severity of side effects during treatment. • 6) Laboratory analyses consisting of general blood and urine tests, including biochemical investigations (AST, ALT). • 7) ECG traces. Results
The mental state of patients with mild cognitive impairment, such as but not limited to through vascular origin was defined by the assessment including the Mini Mental State Examination (MMSE), the Brief Cognitive Rating Scale (BCRS), the Cognitive Capacity Screening Examination (CCSE).
W is Wilcoxon signed-rank test, which is the nonparametric test equivalent to the dependent t-test. It is used to compare two sets of scores that come from the same participants. This can occur when we wish to investigate any change in scores from one time point to another, or when individuals are subjected to more than one condition.
Clinicians use used a Wilcoxon signed-rank test to understand whether there was a difference in the patient conditions in term of fatigue before and after a period the time with the drug treatment.
Analysis of the therapeutic efficacies of NA-831 were performed in all patients in the trial using the assessment methods including: the Mini Mental State Examination (MMSE), the Brief Cognitive Rating Scale (BCRS), and the Cognitive Capacity Screening Examination (CCSE).

Structure (SMILES): O=C1NCC(=O)N2CCC[C@@H]12 [cPG, cyclic Prolyl Glycine]
- long-term memory (12 weeks): improves
- orientation (12 weeks): improves
- patients with little improvement (12 weeks): 7.5%
- patients with marked improvement (12 weeks): 92.5%
- short-term memory (12 weeks): improves
- ability to concentrate and count (Brief Cognitive Rating Scale) (day 42 to day 84, p value of less than 0.01): improve
- functions significantly improved with p<0.01 (listed as NA-831): Reduce fatigue; also recorded: Reduce anxiety; also recorded: Reduce irritability; also recorded: Improve lability; also recorded: Reduce disturbance from waking up at night; also recorded: Reduce daytime drowsiness; also recorded: Improve duration of nocturnal sleep
- Affective Lability, W (Wilcoxon signed-rank test) (Baseline vs day 7): 23
- Anxiety, W (Wilcoxon signed-rank test) (Baseline vs day 7): 22
- Apathy indifference, W (Wilcoxon signed-rank test) (Baseline vs day 7): 19
- Daytime drowsiness, W (Wilcoxon signed-rank test) (Baseline vs day 7): 19
- Decreased mood, W (Wilcoxon signed-rank test) (Baseline vs day 7): 3
- Disturbance to waking, W (Wilcoxon signed-rank test) (Baseline vs day 7): 21
- Headache, W (Wilcoxon signed-rank test) (Baseline vs day 7): 28
- Hyperesthesia, W (Wilcoxon signed-rank test) (Baseline vs day 7): 11
- Impairments to the depth and duration of nocturnal sleep, W (Wilcoxon signed-rank test) (Baseline vs day 7): 37
- Increased fatigue, W (Wilcoxon signed-rank test) (Baseline vs day 7): 17
- Increased irritability, W (Wilcoxon signed-rank test) (Baseline vs day 7): 38
- Orthostatic Impairment, W (Wilcoxon signed-rank test) (Baseline vs day 7): 18
- Sleeping Disturbance, W (Wilcoxon signed-rank test) (Baseline vs day 7): 37
- Sweating, W (Wilcoxon signed-rank test) (Baseline vs day 7): 12
- Tachycardia, W (Wilcoxon signed-rank test) (Baseline vs day 7): 29
- Affective Lability, W (Wilcoxon signed-rank test) (Baseline vs day 14): 58
- Anxiety, W (Wilcoxon signed-rank test) (Baseline vs day 14): 22
- Apathy indifference, W (Wilcoxon signed-rank test) (Baseline vs day 14): 41
- Daytime drowsiness, W (Wilcoxon signed-rank test) (Baseline vs day 14): 45
- Decreased mood, W (Wilcoxon signed-rank test) (Baseline vs day 14): 12
- Disturbance to waking, W (Wilcoxon signed-rank test) (Baseline vs day 14): 29
- Headache, W (Wilcoxon signed-rank test) (Baseline vs day 14): 49
- Hyperesthesia, W (Wilcoxon signed-rank test) (Baseline vs day 14): 21
- Impairments to the depth and duration of nocturnal sleep, W (Wilcoxon signed-rank test) (Baseline vs day 14): 57
- Increased fatigue, W (Wilcoxon signed-rank test) (Baseline vs day 14): 95
- Increased irritability, W (Wilcoxon signed-rank test) (Baseline vs day 14): 47
- Orthostatic Impairment, W (Wilcoxon signed-rank test) (Baseline vs day 14): 37
- Sleeping Disturbance, W (Wilcoxon signed-rank test) (Baseline vs day 14): 47
- Sweating, W (Wilcoxon signed-rank test) (Baseline vs day 14): 23
- Tachycardia, W (Wilcoxon signed-rank test) (Baseline vs day 14): 28
- Affective Lability, W (Wilcoxon signed-rank test) (Baseline vs day 21): 69
- Anxiety, W (Wilcoxon signed-rank test) (Baseline vs day 21): 46
- Apathy indifference, W (Wilcoxon signed-rank test) (Baseline vs day 21): 57
- Daytime drowsiness, W (Wilcoxon signed-rank test) (Baseline vs day 21): 52
- Decreased mood, W (Wilcoxon signed-rank test) (Baseline vs day 21): 22
- Disturbance to waking, W (Wilcoxon signed-rank test) (Baseline vs day 21): 41
- Headache, W (Wilcoxon signed-rank test) (Baseline vs day 21): 98
- Hyperesthesia, W (Wilcoxon signed-rank test) (Baseline vs day 21): 33
- Impairments to the depth and duration of nocturnal sleep, W (Wilcoxon signed-rank test) (Baseline vs day 21): 91
- Increased fatigue, W (Wilcoxon signed-rank test) (Baseline vs day 21): 97
- Increased irritability, W (Wilcoxon signed-rank test) (Baseline vs day 21): 68
- Orthostatic Impairment, W (Wilcoxon signed-rank test) (Baseline vs day 21): 58
- Sleeping Disturbance, W (Wilcoxon signed-rank test) (Baseline vs day 21): 70
- Sweating, W (Wilcoxon signed-rank test) (Baseline vs day 21): 37
- Tachycardia, W (Wilcoxon signed-rank test) (Baseline vs day 21): 35
- Affective Lability, W (Wilcoxon signed-rank test) (Baseline vs day 28): 118
- Anxiety, W (Wilcoxon signed-rank test) (Baseline vs day 28): 70
- Apathy indifference, W (Wilcoxon signed-rank test) (Baseline vs day 28): 59
- Daytime drowsiness, W (Wilcoxon signed-rank test) (Baseline vs day 28): 67
- Decreased mood, W (Wilcoxon signed-rank test) (Baseline vs day 28): 23
- Disturbance to waking, W (Wilcoxon signed-rank test) (Baseline vs day 28): 47
- Headache, W (Wilcoxon signed-rank test) (Baseline vs day 28): 101
- Hyperesthesia, W (Wilcoxon signed-rank test) (Baseline vs day 28): 67
- Impairments to the depth and duration of nocturnal sleep, W (Wilcoxon signed-rank test) (Baseline vs day 28): 93
- Increased fatigue, W (Wilcoxon signed-rank test) (Baseline vs day 28): 137
- Increased irritability, W (Wilcoxon signed-rank test) (Baseline vs day 28): 93
- Orthostatic Impairment, W (Wilcoxon signed-rank test) (Baseline vs day 28): 78
- Sleeping Disturbance, W (Wilcoxon signed-rank test) (Baseline vs day 28): 70
- Sweating, W (Wilcoxon signed-rank test) (Baseline vs day 28): 66
- Tachycardia, W (Wilcoxon signed-rank test) (Baseline vs day 28): 45
- Affective Lability, W (Wilcoxon signed-rank test) (Baseline vs day 42): 139
- Anxiety, W (Wilcoxon signed-rank test) (Baseline vs day 42): 107
- Apathy indifference, W (Wilcoxon signed-rank test) (Baseline vs day 42): 61
- Daytime drowsiness, W (Wilcoxon signed-rank test) (Baseline vs day 42): 76
- Decreased mood, W (Wilcoxon signed-rank test) (Baseline vs day 42): 23
- Disturbance to waking, W (Wilcoxon signed-rank test) (Baseline vs day 42): 69
- Headache, W (Wilcoxon signed-rank test) (Baseline vs day 42): 120
- Hyperesthesia, W (Wilcoxon signed-rank test) (Baseline vs day 42): 69
- Impairments to the depth and duration of nocturnal sleep, W (Wilcoxon signed-rank test) (Baseline vs day 42): 104
- Increased fatigue, W (Wilcoxon signed-rank test) (Baseline vs day 42): 155
- Increased irritability, W (Wilcoxon signed-rank test) (Baseline vs day 42): 109
- Orthostatic Impairment, W (Wilcoxon signed-rank test) (Baseline vs day 42): 67
- Sleeping Disturbance, W (Wilcoxon signed-rank test) (Baseline vs day 42): 82
- Sweating, W (Wilcoxon signed-rank test) (Baseline vs day 42): 67
- Tachycardia, W (Wilcoxon signed-rank test) (Baseline vs day 42): 53
- Affective Lability, W (Wilcoxon signed-rank test) (Baseline vs day 56): 140
- Anxiety, W (Wilcoxon signed-rank test) (Baseline vs day 56): 110
- Apathy indifference, W (Wilcoxon signed-rank test) (Baseline vs day 56): 65
- Daytime drowsiness, W (Wilcoxon signed-rank test) (Baseline vs day 56): 109
- Decreased mood, W (Wilcoxon signed-rank test) (Baseline vs day 56): 23
- Disturbance to waking, W (Wilcoxon signed-rank test) (Baseline vs day 56): 92
- Headache, W (Wilcoxon signed-rank test) (Baseline vs day 56): 121
- Hyperesthesia, W (Wilcoxon signed-rank test) (Baseline vs day 56): 78
- Impairments to the depth and duration of nocturnal sleep, W (Wilcoxon signed-rank test) (Baseline vs day 56): 113
- Increased fatigue, W (Wilcoxon signed-rank test) (Baseline vs day 56): 159
- Increased irritability, W (Wilcoxon signed-rank test) (Baseline vs day 56): 110
- Orthostatic Impairment, W (Wilcoxon signed-rank test) (Baseline vs day 56): 78
- Sleeping Disturbance, W (Wilcoxon signed-rank test) (Baseline vs day 56): 82
- Sweating, W (Wilcoxon signed-rank test) (Baseline vs day 56): 67
- Tachycardia, W (Wilcoxon signed-rank test) (Baseline vs day 56): 67
- Affective Lability, W (Wilcoxon signed-rank test) (Baseline vs day 70): 142
- Anxiety, W (Wilcoxon signed-rank test) (Baseline vs day 70): 115
- Apathy indifference, W (Wilcoxon signed-rank test) (Baseline vs day 70): 67
- Daytime drowsiness, W (Wilcoxon signed-rank test) (Baseline vs day 70): 117
- Decreased mood, W (Wilcoxon signed-rank test) (Baseline vs day 70): 24
- Disturbance to waking, W (Wilcoxon signed-rank test) (Baseline vs day 70): 95
- Headache, W (Wilcoxon signed-rank test) (Baseline vs day 70): 129
- Hyperesthesia, W (Wilcoxon signed-rank test) (Baseline vs day 70): 83
- Impairments to the depth and duration of nocturnal sleep, W (Wilcoxon signed-rank test) (Baseline vs day 70): 118
- Increased fatigue, W (Wilcoxon signed-rank test) (Baseline vs day 70): 162
- Increased irritability, W (Wilcoxon signed-rank test) (Baseline vs day 70): 117
- Orthostatic Impairment, W (Wilcoxon signed-rank test) (Baseline vs day 70): 81
- Sleeping Disturbance, W (Wilcoxon signed-rank test) (Baseline vs day 70): 82
- Sweating, W (Wilcoxon signed-rank test) (Baseline vs day 70): 69
- Tachycardia, W (Wilcoxon signed-rank test) (Baseline vs day 70): 69
- MMSE, average (day 84, average 23.5 on day 1): 29.75
